Source: patent US20090123397A1, “Microbiocidal compositions” (Thor Specialities (UK) Limited, priority 2005, published 2009)

Key:
Pseudomonas aeruginosa [1] = assay: Efficacy of C5 alkane diols vs. C8 alkane diols; assay type: cell-based; set-up: key: + = no growth inhibition; − = growth inhibition
Method: (§1) Tables VIIIA to VIIID—Efficacy of C5 alkane diols vs. C8 alkane diols. […] Tables VIIIA to VIIID above illustrate the results of tests of the efficacy of octane diol compared to pentane diol on various organisms. These tests were carried out in a similar manner to those described above. The percentages at the top line of each table indicate the amount of diol used by weight in the preservative mixture.

Candida albicans [2] = assay: Efficacy of C5 alkane diols vs. C8 alkane diols; assay type: cell-based; set-up: key: + = no growth inhibition; − = growth inhibition
Method: as §1

Aspergillus Niger [3] = assay: Efficacy of C5 alkane diols vs. C8 alkane diols; assay type: cell-based; set-up: key: + = no growth inhibition; − = growth inhibition
Method: as §1

Staphylococcus aureus [4] = assay: Efficacy of C5 alkane diols vs. C8 alkane diols; assay type: cell-based; set-up: key: + = no growth inhibition; − = growth inhibition
Method: as §1

Candida albicans [5] = assay: MIC / growth test of MIT and CAG mixtures in Müller-Hinton broth; assay type: cell-based, Candida albicans NCPF 3179; set-up: key to growth of the micro-organism: growth of the micro-organism took place (symbol “+”); or not (symbol “−”); details: 72 h
Method: (§2) For this purpose, aqueous mixtures were produced with various concentrations of 2-methylisothiazolin-3-one (MIT) and caprylyl glycol (CAG) and the activity of these mixtures were tested on the micro-organisms listed in Table VI.
(§3) In addition to the active component(s) and water, the aqueous mixtures contained a nutrient medium, namely a Müller-Hinton broth (Manufacturer: Oxoid; product code CM405). The incubation time was 72 h at 25° C. (bacterial and yeast) or 7 days at 25° C. (mould). Each sample was incubated on an incubation shaker at 105 rpm.
(§4) The tables also show whether growth of the micro-organism took place (symbol “+”) or not (symbol “−”).
(§5) Tables I to V also show the minimum inhibition concentrations (MIC).
(§6) The synergy index is calculated according to the method of F. C. Kull et al., Applied Microbiology, Vol. 9 (1961), p. 538. Here the synergy index is calculated using the following formula:
(§7) Synergy index=Qa/QA+Qb/QB
(§8) When this formula is used on the biocide system tested here, the quantities in the formula have the following meaning: • Qa=MIC of MIT in the preservative mixture of MIT and CAG • QA=MIC of MIT as sole ingredient • Qb=MIC of CAG in the preservative mixture of MIT and CAG • QB=MIC of CAG as sole ingredient
(§9) When the synergy index has the value 1, this means that there is an addition of the activity of the two ingredients. When the synergy index has a value of less than 1, this means that a synergy of the two ingredients exists.

Staphylococcus aureus [6] = assay: as above; assay type: cell-based, Staphylococcus aureus ATCC 6538; set-up: key to growth of the micro-organism: growth of the micro-organism took place (symbol “+”); or not (symbol “−”); details: 72 h
Method: as §2, §3, §4, §5, §6, §7, §8, §9

Pseudomonas aeruginosa [7] = assay: as above; assay type: cell-based, Pseudomonas aeruginosa ATCC 9027; set-up: key to growth of the micro-organism: growth of the micro-organism took place (symbol “+”); or not (symbol “−”); details: 72 h
Method: as §2, §3, §4, §5, §6, §7, §8, §9

Enterococcus faecalis = assay: as above; assay type: cell-based, Enterococcus faecalis NCIMB 12756; set-up: key to growth of the micro-organism: growth of the micro-organism took place (symbol “+”); or not (symbol “−”); details: 72 h
Method: as §2, §3, §4, §5, §6, §7, §8, §9

Aspergillus niger [8] = assay: as above; assay type: cell-based, Aspergillus niger IMI 149007; set-up: key to growth of the micro-organism: growth of the micro-organism took place (symbol “+”); or not (symbol “−”); details: 5 days
Method: as §2
In addition to the active component(s) and water, the aqueous mixtures contained a nutrient medium, namely a Müller-Hinton broth (Manufacturer: Oxoid; product code CM405). […] (mould). Each sample was incubated on an incubation shaker at 105 rpm.
as §4, §5, §6, §7, §8, §9

In the case of CCCC(O)CO (stereo not drawn) [1,2 Pentane diol, reference compound], the growth inhibition (Pseudomonas aeruginosa [1]; diol 0.2% by weight) is reported as “+”, the growth inhibition (Pseudomonas aeruginosa [1]; diol 0.4% by weight) is reported as “+” and the growth inhibition (Pseudomonas aeruginosa [1]; diol 0.6% by weight) is reported as “+”. For the same compound, the growth inhibition (Pseudomonas aeruginosa [1]; diol 0.8% by weight) was “+”, the growth inhibition (Pseudomonas aeruginosa [1]; diol 1.0% by weight) was “+” and the growth inhibition (Candida albicans [2]; diol 0.2% by weight) was “+”. The growth inhibition (Candida albicans [2]; diol 0.4% by weight) was “+”, the growth inhibition (Candida albicans [2]; diol 0.6% by weight) was “+” and the growth inhibition (Candida albicans [2]; diol 0.8% by weight) was “+”. The growth inhibition (Candida albicans [2]; diol 1.0% by weight) was “+”, the growth inhibition (Aspergillus Niger [3]; diol 0.2% by weight) was “+” and the growth inhibition (Aspergillus Niger [3]; diol 0.4% by weight) was “+”. The growth inhibition (Aspergillus Niger [3]; diol 0.6% by weight) was “+”, the growth inhibition (Aspergillus Niger [3]; diol 0.8% by weight) was “+” and the growth inhibition (Aspergillus Niger [3]; diol 1.0% by weight) was “+”. The growth inhibition (Staphylococcus aureus [4]; diol 0.2% by weight) was “+”, the growth inhibition (Staphylococcus aureus [4]; diol 0.4% by weight) was “+” and the growth inhibition (Staphylococcus aureus [4]; diol 0.6% by weight) was “+”. The growth inhibition (Staphylococcus aureus [4]; diol 0.8% by weight) was “+” and the growth inhibition (Staphylococcus aureus [4]; diol 1.0% by weight) was “+”.

With CCCCCCC(O)CO (stereo not drawn) [1,2-Octane diol] the growth inhibition (Pseudomonas aeruginosa [1]; diol 0.2% by weight) was “+”, the growth inhibition (Pseudomonas aeruginosa [1]; diol 0.4% by weight) was “−” and the growth inhibition (Pseudomonas aeruginosa [1]; diol 0.6% by weight) was “−”. For the same compound, the growth inhibition (Pseudomonas aeruginosa [1]; diol 0.8% by weight) was “−”, the growth inhibition (Pseudomonas aeruginosa [1]; diol 1.0% by weight) was “−” and the growth inhibition (Candida albicans [2]; diol 0.2% by weight) was “+”. For the same compound, the growth inhibition (Candida albicans [2]; diol 0.4% by weight) was “−”, the growth inhibition (Candida albicans [2]; diol 0.6% by weight) was “−” and the growth inhibition (Candida albicans [2]; diol 0.8% by weight) was “−”. For the same compound, the growth inhibition (Candida albicans [2]; diol 1.0% by weight) was “−”, the growth inhibition (Aspergillus Niger [3]; diol 0.2% by weight) was “−” and the growth inhibition (Aspergillus Niger [3]; diol 0.4% by weight) was “−”. For the same compound, the growth inhibition (Aspergillus Niger [3]; diol 0.6% by weight) was “−”, the growth inhibition (Aspergillus Niger [3]; diol 0.8% by weight) was “−” and the growth inhibition (Aspergillus Niger [3]; diol 1.0% by weight) was “−”. The growth inhibition (Staphylococcus aureus [4]; diol 0.2% by weight) was “−”, the growth inhibition (Staphylococcus aureus [4]; diol 0.4% by weight) was “−” and the growth inhibition (Staphylococcus aureus [4]; diol 0.6% by weight) was “−”. The growth inhibition (Staphylococcus aureus [4]; diol 0.8% by weight) was “−” and the growth inhibition (Staphylococcus aureus [4]; diol 1.0% by weight) was “−”.

For CCCCCCC(O)CO (stereo not drawn) [CAG, caprylyl glycol], the “QB (CAG): MIC of CAG as sole ingredient” value (Candida albicans [5]) was 3000 ppm, the “growth of the micro-organism” value (Candida albicans [5]; MIT 0 ppm, CAG 500 ppm) was “+” and the “growth of the micro-organism” value (Candida albicans [5]; MIT 0 ppm, CAG 1000 ppm) was “+”. For the same compound, the “growth of the micro-organism” value (Candida albicans [5]; MIT 0 ppm, CAG 2000 ppm) was “+”, the “growth of the micro-organism” value (Candida albicans [5]; MIT 0 ppm, CAG 3000 ppm) was “−” and the “growth of the micro-organism” value (Candida albicans [5]; MIT 0 ppm, CAG 4000 ppm) was “−”. For the same compound, the “QB (CAG): MIC of CAG as sole ingredient” value (Staphylococcus aureus [6]) was 1000 ppm, the “growth of the micro-organism” value (Staphylococcus aureus [6]; MIT 0 ppm, CAG 500 ppm) was “+” and the “growth of the micro-organism” value (Staphylococcus aureus [6]; MIT 0 ppm, CAG 1000 ppm) was “−”. The “growth of the micro-organism” value (Staphylococcus aureus [6]; MIT 0 ppm, CAG 2000 ppm) was “−”, the “growth of the micro-organism” value (Staphylococcus aureus [6]; MIT 0 ppm, CAG 3000 ppm) was “−” and the “growth of the micro-organism” value (Staphylococcus aureus [6]; MIT 0 ppm, CAG 4000 ppm) was “−”. The “QB (CAG): MIC of CAG as sole ingredient” value (Pseudomonas aeruginosa [7]) was 4000 ppm, the “growth of the micro-organism” value (Pseudomonas aeruginosa [7]; MIT 0 ppm, CAG 500 ppm) was “+” and the “growth of the micro-organism” value (Pseudomonas aeruginosa [7]; MIT 0 ppm, CAG 1000 ppm) was “+”. For the same compound, the “growth of the micro-organism” value (Pseudomonas aeruginosa [7]; MIT 0 ppm, CAG 2000 ppm) was “+”, the “growth of the micro-organism” value (Pseudomonas aeruginosa [7]; MIT 0 ppm, CAG 3000 ppm) was “+” and the “growth of the micro-organism” value (Pseudomonas aeruginosa [7]; MIT 0 ppm, CAG 4000 ppm) was “−”. For the same compound, the “QB (CAG): MIC of CAG as sole ingredient” value (Enterococcus faecalis) was 2000 ppm, the “growth of the micro-organism” value (Enterococcus faecalis; MIT 0 ppm, CAG 500 ppm) was “+” and the “growth of the micro-organism” value (Enterococcus faecalis; MIT 0 ppm, CAG 1000 ppm) was “+”. The “growth of the micro-organism” value (Enterococcus faecalis; MIT 0 ppm, CAG 2000 ppm) was “−”, the “growth of the micro-organism” value (Enterococcus faecalis; MIT 0 ppm, CAG 3000 ppm) was “−” and the “growth of the micro-organism” value (Enterococcus faecalis; MIT 0 ppm, CAG 4000 ppm) was “−”. The “QB (CAG): MIC of CAG as sole ingredient” value (Aspergillus niger [8]) was 2000 ppm, the “growth of the micro-organism” value (Aspergillus niger [8]; MIT 0 ppm, CAG 500 ppm) was “+” and the “growth of the micro-organism” value (Aspergillus niger [8]; MIT 0 ppm, CAG 1000 ppm) was “+”. For the same compound, the “growth of the micro-organism” value (Aspergillus niger [8]; MIT 0 ppm, CAG 2000 ppm) was “−”, the “growth of the micro-organism” value (Aspergillus niger [8]; MIT 0 ppm, CAG 3000 ppm) was “−” and the “growth of the micro-organism” value (Aspergillus niger [8]; MIT 0 ppm, CAG 4000 ppm) was “−”.

In the case of Cn1sccc1=O [MIT, 2-methylisothiazolin-3-one], the “QA (MIT): MIC of MIT as sole ingredient” value (Candida albicans [5]) is reported as 200 ppm, the “growth of the micro-organism” value (Candida albicans [5]; MIT 10 ppm, CAG 0 ppm) is reported as “+” and the “growth of the micro-organism” value (Candida albicans [5]; MIT 25 ppm, CAG 0 ppm) is reported as “+”. The “growth of the micro-organism” value (Candida albicans [5]; MIT 37.5 ppm, CAG 0 ppm) was “+”, the “growth of the micro-organism” value (Candida albicans [5]; MIT 50 ppm, CAG 0 ppm) was “+” and the “growth of the micro-organism” value (Candida albicans [5]; MIT 75 ppm, CAG 0 ppm) was “+”. For the same compound, the “growth of the micro-organism” value (Candida albicans [5]; MIT 100 ppm, CAG 0 ppm) was “+”, the “growth of the micro-organism” value (Candida albicans [5]; MIT 200 ppm, CAG 0 ppm) was “−” and the “QA (MIT): MIC of MIT as sole ingredient” value (Staphylococcus aureus [6]) was 25 ppm. For the same compound, the “growth of the micro-organism” value (Staphylococcus aureus [6]; MIT 10 ppm, CAG 0 ppm) was “+”, the “growth of the micro-organism” value (Staphylococcus aureus [6]; MIT 25 ppm, CAG 0 ppm) was “−” and the “growth of the micro-organism” value (Staphylococcus aureus [6]; MIT 37.5 ppm, CAG 0 ppm) was “−”. The “growth of the micro-organism” value (Staphylococcus aureus [6]; MIT 50 ppm, CAG 0 ppm) was “−”, the “growth of the micro-organism” value (Staphylococcus aureus [6]; MIT 75 ppm, CAG 0 ppm) was “−” and the “QA (MIT): MIC of MIT as sole ingredient” value (Pseudomonas aeruginosa [7]) was 25 ppm. The “growth of the micro-organism” value (Pseudomonas aeruginosa [7]; MIT 10 ppm, CAG 0 ppm) was “+”, the “growth of the micro-organism” value (Pseudomonas aeruginosa [7]; MIT 25 ppm, CAG 0 ppm) was “−” and the “growth of the micro-organism” value (Pseudomonas aeruginosa [7]; MIT 37.5 ppm, CAG 0 ppm) was “−”. The “growth of the micro-organism” value (Pseudomonas aeruginosa [7]; MIT 50 ppm, CAG 0 ppm) was “−”, the “growth of the micro-organism” value (Pseudomonas aeruginosa [7]; MIT 75 ppm, CAG 0 ppm) was “−” and the “QA (MIT): MIC of MIT as sole ingredient” value (Enterococcus faecalis) was 75 ppm. The “growth of the micro-organism” value (Enterococcus faecalis; MIT 10 ppm, CAG 0 ppm) was “+”, the “growth of the micro-organism” value (Enterococcus faecalis; MIT 25 ppm, CAG 0 ppm) was “+” and the “growth of the micro-organism” value (Enterococcus faecalis; MIT 37.5 ppm, CAG 0 ppm) was “+”. For the same compound, the “growth of the micro-organism” value (Enterococcus faecalis; MIT 50 ppm, CAG 0 ppm) was “+”, the “growth of the micro-organism” value (Enterococcus faecalis; MIT 75 ppm, CAG 0 ppm) was “−” and the “QA (MIT): MIC of MIT as sole ingredient” value (Aspergillus niger [8]) was 300 ppm. The “growth of the micro-organism” value (Aspergillus niger [8]; MIT 10 ppm, CAG 0 ppm) was “+”, the “growth of the micro-organism” value (Aspergillus niger [8]; MIT 25 ppm, CAG 0 ppm) was “+” and the “growth of the micro-organism” value (Aspergillus niger [8]; MIT 37.5 ppm, CAG 0 ppm) was “+”. For the same compound, the “growth of the micro-organism” value (Aspergillus niger [8]; MIT 50 ppm, CAG 0 ppm) was “+”, the “growth of the micro-organism” value (Aspergillus niger [8]; MIT 75 ppm, CAG 0 ppm) was “+” and the “growth of the micro-organism” value (Aspergillus niger [8]; MIT 100 ppm, CAG 0 ppm) was “+”. For the same compound, the “growth of the micro-organism” value (Aspergillus niger [8]; MIT 200 ppm, CAG 0 ppm) was “+” and the “growth of the micro-organism” value (Aspergillus niger [8]; MIT 300 ppm, CAG 0 ppm) was “−”.
